The values that follow come from ChEMBL document CHEMBL1201862, “PubChem BioAssay data set” (2004).

Test systems include SR; OVCAR-4; RPMI-8226; UO-31; UACC-257; NCI-H460; SF-539; HOP-92; CCRF-CEM; LOX IMVI; HOP-62; TK-10; SF-268; MDA-MB-231; Hs-578T; HL-60; Malme-3M; RXF 393; A498.
Holding throughout (assay): inhibition of tumour cell growth, NCI panel, 48 h

Structures are written as SMILES.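 Test compounds were applied to cells in 96-well plates for 48 hours at 5 doses. GI50 marks 50% less growth.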 Calls of active or inactive are those of the source. No stated cut-off is given here; in the data, active = GI50 up to about 1.1 µM and inactive = higher. A value given as a limit tells only on which side of the number the result lay.

Take `O=C(CN1CCCC1)Nc1ccc2sc3ccccc3c(=O)c2n1`: the GI50 with SR is 24.9 µM (inactive); with OVCAR-4, 34.6 µM (inactive); in the experiment with RPMI-8226, 21.3 µM (inactive); in the experiment with UO-31, 14.2 µM (inactive); with UACC-257, > 10 µM (inactive); with NCI-H460, 22 µM (inactive). Besides, the GI50 was 17.1 µM (inactive) with SF-539; 27.3 µM (inactive) in the experiment with HOP-92; 10.5 µM (inactive) with CCRF-CEM; 11 µM (inactive) with LOX IMVI; 16.9 µM (inactive) in the experiment with HOP-62; 33 µM (inactive) in the experiment on TK-10. The GI50 is 24.7 µM (inactive) in the experiment on SF-268, 26.4 µM (inactive) with MDA-MB-231, 21.2 µM (inactive) with Hs-578T and > 10 µM (inactive) in the experiment with HL-60.

Take `COc1ccccc1C(=O)c1ccc2ccccc2c1`: the GI50 in the experiment with SR was 3.24 µM (inactive); with OVCAR-4, 36 µM (inactive); in the experiment on RPMI-8226 it was 16.2 µM (inactive); with UO-31, 20.6 µM (inactive); in the experiment with Malme-3M, 10.8 µM (inactive); with UACC-257 it was 30.6 µM (inactive). Further, the GI50 with NCI-H460 was 15.2 µM (inactive); in the experiment with SF-539, 5.74 µM (inactive); in the experiment on HOP-92, 18.7 µM (inactive); with CCRF-CEM, 20.2 µM (inactive); with LOX IMVI, 12.6 µM (inactive); with HOP-62, 33.7 µM (inactive). In addition, the GI50 with TK-10 was 17.8 µM (inactive); in the experiment with RXF 393, 22.5 µM (inactive); in the experiment with SF-268 it was 30.5 µM (inactive); in the experiment on MDA-MB-231, 35.8 µM (inactive); with Hs-578T, 12.3 µM (inactive); in the experiment on HL-60, 3.21 µM (inactive).

Turning to `C(=N\CCCN1CCN(CCC/N=C/c2cccc3ccccc23)CC1)/c1cccc2ccccc12`, the GI50 in the experiment with SR is 38 µM (inactive); in the experiment on OVCAR-4, > 100 µM (inactive); with RPMI-8226 it was 36 µM (inactive); in the experiment on UO-31, 48.3 µM (inactive); in the experiment with Malme-3M, > 100 µM (inactive); in the experiment on UACC-257, > 100 µM (inactive). The GI50 in the experiment with NCI-H460 was > 100 µM (inactive); with SF-539, > 100 µM (inactive); with CCRF-CEM, 52.7 µM (inactive); with LOX IMVI, 42.5 µM (inactive); in the experiment with HOP-62, > 100 µM (inactive); with TK-10 it was 72.1 µM (inactive). Moreover, the GI50 in the experiment with RXF 393 is 10.8 µM (inactive); with SF-268, > 100 µM (inactive); in the experiment on MDA-MB-231 it was > 100 µM (inactive); in the experiment on Hs-578T it was 18.8 µM (inactive).

Take `N#Cc1c(=O)c2ccccc2n2c1[nH]c1ccccc12`: the GI50 was 0.618 µM (active) in the experiment with SR; 24.1 µM (inactive) with OVCAR-4; 19.2 µM (inactive) with RPMI-8226; 33.7 µM (inactive) with UO-31; 86.1 µM (inactive) with UACC-257; 37 µM (inactive) in the experiment with NCI-H460. The GI50 in the experiment on SF-539 was 32.1 µM (inactive); in the experiment on CCRF-CEM, 17.8 µM (inactive); in the experiment with LOX IMVI it was 20.6 µM (inactive); in the experiment on HOP-62 it was > 100 µM (inactive); in the experiment with TK-10, 49.5 µM (inactive); in the experiment with A498, 25.1 µM (inactive). Besides, the GI50 was 4.44 µM (inactive) with RXF 393; 31.5 µM (inactive) in the experiment on SF-268; 54.6 µM (inactive) with MDA-MB-231; 20.9 µM (inactive) in the experiment with Hs-578T; 18.7 µM (inactive) in the experiment with HL-60.

Consider `O=c1c(Sc2c(SCSc3cnc4ccccc4c3Sc3c[nH]c4ccccc4c3=O)cnc3ccccc23)c[nH]c2ccccc12`, for which the GI50 was 0.877 µM (active) with SR; 96.6 µM (inactive) with OVCAR-4; 14.5 µM (inactive) in the experiment on RPMI-8226; > 100 µM (inactive) with UO-31; > 100 µM (inactive) in the experiment on UACC-257; > 100 µM (inactive) in the experiment on NCI-H460. Further, the GI50 with SF-539 is > 100 µM (inactive); in the experiment with HOP-92, 34 µM (inactive); with CCRF-CEM, 12.7 µM (inactive); in the experiment on LOX IMVI, > 100 µM (inactive); in the experiment with HOP-62, 94.2 µM (inactive); with TK-10, > 100 µM (inactive). Moreover, the GI50 in the experiment on SF-268 was 92.3 µM (inactive); with MDA-MB-231 it was 34.9 µM (inactive); with Hs-578T, 62.8 µM (inactive); in the experiment on HL-60, 0.54 µM (active).

`Cc1cn([C@H]2C=C[C@@H](CO)O2)c(=O)[nH]c1=O` [STAVUDINE]: the GI50 in the experiment on SR was 780 µM (inactive); in the experiment with OVCAR-4, > 1000 µM (inactive); in the experiment on RPMI-8226 it was 466 µM (inactive); in the experiment with UO-31 it was 490 µM (inactive); in the experiment on Malme-3M, 361 µM (inactive); in the experiment with UACC-257 it was > 1000 µM (inactive). For the same compound, the GI50 with SF-539 was 881 µM (inactive); in the experiment with HOP-92, 679 µM (inactive); in the experiment on CCRF-CEM it was 469 µM (inactive); in the experiment with LOX IMVI, > 1000 µM (inactive); in the experiment with HOP-62, > 1000 µM (inactive); with TK-10 it was 583 µM (inactive). Besides, the GI50 was > 1000 µM (inactive) with SF-268, > 1000 µM (inactive) with MDA-MB-231, > 1000 µM (inactive) with Hs-578T and 348 µM (inactive) with HL-60.

With `Clc1cc2ncn(C3CCCO3)c2cc1Cl` (stereo not drawn), the GI50 in the experiment on SR is 48.3 µM (inactive); with OVCAR-4, > 100 µM (inactive); with RPMI-8226, 88.9 µM (inactive); with UO-31 it was 17.7 µM (inactive); in the experiment on Malme-3M, > 100 µM (inactive); in the experiment with UACC-257 it was > 100 µM (inactive). Besides, the GI50 in the experiment with SF-539 was > 100 µM (inactive); with HOP-92, 98.9 µM (inactive); with CCRF-CEM, > 100 µM (inactive); in the experiment on LOX IMVI, 54.2 µM (inactive); in the experiment with HOP-62, > 100 µM (inactive); with TK-10, 96.2 µM (inactive). The GI50 with RXF 393 was 81.3 µM (inactive); in the experiment with SF-268, 99.3 µM (inactive); in the experiment on MDA-MB-231 it was > 100 µM (inactive); in the experiment with Hs-578T, 48.8 µM (inactive); in the experiment on HL-60 it was 78.9 µM (inactive).

Consider `Cn1cc(NC(=O)Nc2cc(C(=O)Nc3cc(C(=O)Nc4ccc(S(=O)(=O)O)c5cc(S(=O)(=O)O)ccc45)n(C)c3)n(C)c2)cc1C(=O)Nc1cc(C(=O)Nc2ccc(S(=O)(=O)O)c3cc(S(=O)(=O)O)ccc23)n(C)c1`, for which the GI50 with SR, with OVCAR-4, in the experiment on RPMI-8226, in the experiment with UO-31, with Malme-3M and in the experiment on UACC-257 was > 100 µM (inactive) each time. Moreover, the GI50 was > 100 µM (inactive) in the experiment on NCI-H460; > 100 µM (inactive) in the experiment with SF-539; 51.9 µM (inactive) in the experiment on HOP-92; > 100 µM (inactive) in the experiment with CCRF-CEM; > 100 µM (inactive) with HOP-62; 83.8 µM (inactive) in the experiment with TK-10. For the same compound, the GI50 with RXF 393, in the experiment with SF-268, with MDA-MB-231, in the experiment on Hs-578T and in the experiment on HL-60 was > 100 µM (inactive) in each case.

`CN(C(=O)CC(=O)CP(=O)(c1ccccc1)c1ccccc1)c1ccccc1`: the GI50 in the experiment on SR, with OVCAR-4, in the experiment with RPMI-8226, with UO-31, with UACC-257 and in the experiment with NCI-H460 was > 100 µM (inactive) in each case. The GI50 with SF-539, in the experiment on CCRF-CEM, with HOP-62, in the experiment on TK-10, with RXF 393 and in the experiment with SF-268 was > 100 µM (inactive) throughout. Also, the GI50 with MDA-MB-231, in the experiment on Hs-578T and in the experiment on HL-60 was > 100 µM (inactive) throughout.

Turning to `Cc1nc(O)c2ncn(CCO)c2n1`, the GI50 in the experiment on SR, with OVCAR-4, in the experiment on Malme-3M, in the experiment with UACC-257, in the experiment on NCI-H460 and in the experiment on SF-539 was > 100 µM (inactive) throughout. Also, the GI50 in the experiment on CCRF-CEM, in the experiment on LOX IMVI, in the experiment with HOP-62, with TK-10, in the experiment on A498 and with RXF 393 was > 100 µM (inactive) throughout. For the same compound, the GI50 in the experiment on SF-268, in the experiment with MDA-MB-231, in the experiment on Hs-578T and in the experiment with HL-60 was > 100 µM (inactive) each time.

`CCCCCCCCCCCCCCCCCCNc1nc(=O)n(C2CC(O)C(COP(=O)(O)OCC(COP(=O)(O)OC3C(CO)OC(n4ccc(N)nc4=O)C3O)OCCCCCCCCCCCCCCCCCC)O2)cc1F` (stereo not drawn): the GI50 in the experiment on OVCAR-4 was 87.9 µM (inactive); with RPMI-8226 it was 11.8 µM (inactive); in the experiment with UO-31 it was 28.8 µM (inactive); with Malme-3M, 41.4 µM (inactive); with UACC-257, 97.3 µM (inactive); in the experiment with NCI-H460, 9.2 µM (inactive). Further, the GI50 with SF-539 is 17.4 µM (inactive); with HOP-92, > 100 µM (inactive); in the experiment on CCRF-CEM, 0.402 µM (active); in the experiment with LOX IMVI, 16.7 µM (inactive); in the experiment with HOP-62, 16.5 µM (inactive); in the experiment on TK-10, 33.1 µM (inactive). In addition, the GI50 is 36.7 µM (inactive) with A498; 14.5 µM (inactive) with RXF 393; 91.6 µM (inactive) in the experiment with SF-268; > 100 µM (inactive) with MDA-MB-231; 78.5 µM (inactive) in the experiment with Hs-578T; 8.36 µM (inactive) in the experiment with HL-60.

Regarding `O=C1NC(=S)N/C1=C\c1cc2c(=O)c3ccccc3sc2s1`, the GI50 in the experiment on SR was 22.8 µM (inactive); in the experiment with OVCAR-4, 76 µM (inactive); with RPMI-8226, 25.6 µM (inactive); in the experiment with UO-31, 58.5 µM (inactive); in the experiment with Malme-3M, > 100 µM (inactive); in the experiment with UACC-257 it was > 100 µM (inactive). Further, the GI50 in the experiment on NCI-H460 is 64 µM (inactive); in the experiment on LOX IMVI it was 59.7 µM (inactive); in the experiment with HOP-62 it was 32.5 µM (inactive); in the experiment on TK-10, 97.7 µM (inactive); in the experiment with A498, > 100 µM (inactive); in the experiment on RXF 393, 68.1 µM (inactive). The GI50 was > 100 µM (inactive) with SF-268, > 100 µM (inactive) with MDA-MB-231, 64.6 µM (inactive) with Hs-578T and 36.5 µM (inactive) in the experiment on HL-60.
